Assay results: patent publication US20120029187A1, “HALOALKYLSULFONANILIDE DERIVATIVE” (Nissan Chemical Industries, Ltd., priority 2009, published 2012)

Experiments:
Format in all cases: in vivo
transplanted rice = assay: Test Example 1: preemergence treatment under submerged conditions, effect on crop; details: dose 2.52 g/a
Excerpt: (§1) Test on the Herbicidal Effects in Preemergence Treatment on Weeds Under Submerged Conditions
(§2) Alluvial soil was put in 1/30000-are styrol cups and admixed with water so that it was submerged at a depth of 4 cm. In each cup, seeds of barnyardgrass, bulrush and ducksalad were sown together, and rice seedlings at the 2.5-leaf stage were transplanted. On the same day as the seeding, emulsifiable concentrates containing compounds of the present invention formulated in accordance with Formulation Example 2 were applied to the water surfaces at predetermined doses after diluted with water. The cups were placed in a greenhouse at 25 to 30° C. to grow the plants. Three weeks after the application, the herbicidal effects against various plants were determined on the following evaluation scale.
(§3) 5 mortality of 90% or above (nearly complete death)
(§4) 4 mortality of at least 70% and less than 90%
(§5) 3 mortality of at least 40% and less than 70%
(§6) 2 mortality of at least 20% and less than 40%
(§7) 1 mortality of at least 5% and less than 20%
(§8) 0 mortality of less than 5% (almost ineffective)
(§9) A: barnyardgrass, B: bulrush, C: ducksalad, D: large crabgrass, E: giant foxtail, F: wild oat, G: water foxtail, H: Italian ryegrass, I: velvetleaf, J: common ragweed, K: redroot pigweed, L: common lambsquater, M: posumbu knotweed, N: common chickweed, O: beadstraw, a: transplanted rice, b: corn, c: soybean, d: direct-seeded rice, e: wheat, f: sugar beet.
(§10) The doses (g/a) represents the amounts in g per 1 are (a) applied after adjustment of concentration adjustment.

velvetleaf = assay: Test Example 4: herbicidal effect in foliage treatment; details: dose 3.2 g/a, three weeks after the application
Excerpt: (§11) Test on the Herbicidal Effect in Foliage Treatment
(§12) Sterilized diluvial soil was put in plastic boxes with a length of 21 cm, a width of 13 cm and a depth of 7 cm, and seeds of barnyardgrass, large crabgrass, giant foxtail, wild oat, blackgrass, velvetleaf, common ragweed, redroot pigweed, common lambsquater, posumbu knotweed, common chickweed, corn, soybean, rice, wheat and sugar beet were sown in spots and covered with an about 1.5 cm-thick soil layer. The boxes were placed in a greenhouse at 25 to 30° C. to grow the plants. After 14 days, emulsifiable concentrates containing compounds of the present invention formulated in accordance with Formulation Example 2 were uniformly applied to the foliage at predetermined doses through a small sprayer after diluted with water. Three weeks after the application, the herbicidal effects against various plants were determined on the same evaluation scale as in Test Example 1.
as §9, §10

posumbu knotweed [1] = assay: as above; details: dose 3.2 g/a, three weeks after the application
Excerpt: as §11, §12, §9, §10

redroot pigweed [2] = assay: as above; details: dose 3.2 g/a, three weeks after the application
Excerpt: as §11, §12, §9, §10

common lambsquater [3] = assay: as above; details: dose 3.2 g/a, three weeks after the application
Excerpt: as §11, §12, §9, §10

Italian ryegrass [4] = assay: as above; details: dose 3.2 g/a, three weeks after the application
Excerpt: as §11, §12, §9, §10

water foxtail [5] = assay: as above; details: dose 3.2 g/a, three weeks after the application
Excerpt: as §11, §12, §9, §10

common ragweed [6] = assay: as above; details: dose 3.2 g/a, three weeks after the application
Excerpt: as §11, §12, §9, §10

common chickweed [7] = assay: as above; details: dose 3.2 g/a, three weeks after the application
Excerpt: as §11, §12, §9, §10

beadstraw = assay: as above; details: dose 3.2 g/a, three weeks after the application
Excerpt: as §11, §12, §9, §10

large crabgrass [8] = assay: as above; details: dose 3.2 g/a, three weeks after the application
Excerpt: as §11, §12, §9, §10

barnyardgrass [9] = assay: as above; details: dose 3.2 g/a, three weeks after the application
Excerpt: as §11, §12, §9, §10

giant foxtail [10] = assay: as above; details: dose 3.2 g/a, three weeks after the application
Excerpt: as §11, §12, §9, §10

posumbu knotweed [11] = assay: Test Example 3: herbicidal effects in soil treatment; details: dose 3.2 g/a
Excerpt: (§13) Test on the Herbicidal Effects in Soil Treatment
as §12, with “chickweed” for “chickweed,”, “Emulsifiable” for “The boxes were placed in a greenhouse at 25 to 30° C. to grow the plants. After 14 days, emulsifiable”, “soil surfaces” for “foliage”, “dilute” for “diluted”
as §9, §10

redroot pigweed [12] = assay: as above; details: dose 3.2 g/a
Excerpt: as §13
as §12, with “chickweed” for “chickweed,”, “Emulsifiable” for “The boxes were placed in a greenhouse at 25 to 30° C. to grow the plants. After 14 days, emulsifiable”, “soil surfaces” for “foliage”, “dilute” for “diluted”
as §9, §10

common lambsquater [13] = assay: as above; details: dose 3.2 g/a
Excerpt: as §13
as §12, with “chickweed” for “chickweed,”, “Emulsifiable” for “The boxes were placed in a greenhouse at 25 to 30° C. to grow the plants. After 14 days, emulsifiable”, “soil surfaces” for “foliage”, “dilute” for “diluted”
as §9, §10

Italian ryegrass [14] = assay: as above; details: dose 3.2 g/a
Excerpt: as §13
as §12, with “chickweed” for “chickweed,”, “Emulsifiable” for “The boxes were placed in a greenhouse at 25 to 30° C. to grow the plants. After 14 days, emulsifiable”, “soil surfaces” for “foliage”, “dilute” for “diluted”
as §9, §10

water foxtail [15] = assay: as above; details: dose 3.2 g/a
Excerpt: as §13
as §12, with “chickweed” for “chickweed,”, “Emulsifiable” for “The boxes were placed in a greenhouse at 25 to 30° C. to grow the plants. After 14 days, emulsifiable”, “soil surfaces” for “foliage”, “dilute” for “diluted”
as §9, §10

common ragweed [16] = assay: as above; details: dose 3.2 g/a
Excerpt: as §13
as §12, with “chickweed” for “chickweed,”, “Emulsifiable” for “The boxes were placed in a greenhouse at 25 to 30° C. to grow the plants. After 14 days, emulsifiable”, “soil surfaces” for “foliage”, “dilute” for “diluted”
as §9, §10

common chickweed [17] = assay: as above; details: dose 3.2 g/a
Excerpt: as §13
as §12, with “chickweed” for “chickweed,”, “Emulsifiable” for “The boxes were placed in a greenhouse at 25 to 30° C. to grow the plants. After 14 days, emulsifiable”, “soil surfaces” for “foliage”, “dilute” for “diluted”
as §9, §10

large crabgrass [18] = assay: as above; details: dose 3.2 g/a
Excerpt: as §13
as §12, with “chickweed” for “chickweed,”, “Emulsifiable” for “The boxes were placed in a greenhouse at 25 to 30° C. to grow the plants. After 14 days, emulsifiable”, “soil surfaces” for “foliage”, “dilute” for “diluted”
as §9, §10

barnyardgrass [19] = assay: as above; details: dose 3.2 g/a
Excerpt: as §13
as §12, with “chickweed” for “chickweed,”, “Emulsifiable” for “The boxes were placed in a greenhouse at 25 to 30° C. to grow the plants. After 14 days, emulsifiable”, “soil surfaces” for “foliage”, “dilute” for “diluted”
as §9, §10

giant foxtail [20] = assay: as above; details: dose 3.2 g/a
Excerpt: as §13
as §12, with “chickweed” for “chickweed,”, “Emulsifiable” for “The boxes were placed in a greenhouse at 25 to 30° C. to grow the plants. After 14 days, emulsifiable”, “soil surfaces” for “foliage”, “dilute” for “diluted”
as §9, §10

bulrush [21] = assay: Test Example 1: herbicidal effects in preemergence treatment under submerged conditions; details: dose 2.52 g/a
Excerpt: as §1, §2, §3, §4, §5, §6, §7, §8, §9, §10

barnyardgrass [22] = assay: as above; details: dose 2.52 g/a
Excerpt: as §1, §2, §3, §4, §5, §6, §7, §8, §9, §10

ducksalad [23] = assay: as above; details: dose 2.52 g/a
Excerpt: as §1, §2, §3, §4, §5, §6, §7, §8, §9, §10

bulrush [24] = assay: Test Example 2: herbicidal effects during the vegetation period under submerged conditions; details: treatment during the vegetation period under submerged conditions; dose 2.52 g/a
Protocol: (§14) Test on the Herbicidal Effects on Weeds During the Vegetation Period Under Submerged Conditions
(§15) Alluvial soil was put in 1/30000-are styrol cups and admixed with water so that it was submerged at a depth of 4 cm. In each cup, seeds of barnyardgrass, bulrush and ducksalad were sown together, and the cups were placed in a greenhouse at 25 to 30° C. to grow the plants. When the barnyardgrass, bulrush and ducksalad reached the 1- or 2-leaf stage, emulsifiable concentrates containing compounds of the present invention formulated in accordance with Formulation Example 2 were applied to the water surfaces at predetermined doses after diluted with water. Three weeks after the application, the herbicidal effects against various plants were determined on the same evaluation scale as in Test Example 1.
as §9, §10

barnyardgrass [25] = assay: as above; details: treatment during the vegetation period under submerged conditions; dose 2.52 g/a
Protocol: as §14, §15, §9, §10

ducksalad [26] = assay: as above; details: treatment during the vegetation period under submerged conditions; dose 2.52 g/a
Protocol: as §14, §15, §9, §10

| Compound | a: transplanted rice, effect on crop (evaluation scale 0-5) (transplanted rice) | I: velvetleaf, herbicidal effect (velvetleaf) | M: posumbu knotweed, herbicidal effect (posumbu knotweed [1]) | K: redroot pigweed, herbicidal effect (redroot pigweed [2]) | L: common lambsquater, herbicidal effect (common lambsquater [3]) | H: Italian ryegrass, herbicidal effect (Italian ryegrass [4]) | G: water foxtail, herbicidal effect (water foxtail [5]) | J: common ragweed, herbicidal effect (common ragweed [6]) | N: common chickweed, herbicidal effect (common chickweed [7]) | O: beadstraw, herbicidal effect (beadstraw) | D: large crabgrass, herbicidal effect (large crabgrass [8]) | A: barnyardgrass, herbicidal effect (barnyardgrass [9]) | E: giant foxtail, herbicidal effect (giant foxtail [10]) | herbicidal effect, M: posumbu knotweed (posumbu knotweed [11]) | herbicidal effect, K: redroot pigweed (redroot pigweed [12]) | herbicidal effect, L: common lambsquater (common lambsquater [13]) | herbicidal effect, H: Italian ryegrass (Italian ryegrass [14]) | herbicidal effect, G: water foxtail (water foxtail [15]) | herbicidal effect, J: common ragweed (common ragweed [16]) | herbicidal effect, N: common chickweed (common chickweed [17]) | also measured |
| --- | --- | --- | --- | --- | --- | --- | --- | --- | --- | --- | --- | --- | --- | --- | --- | --- | --- | --- | --- | --- | --- |
| CCOC(=O)N(c1ccccc1CN1OCC(C(F)(F)F)OC1=O)S(=O)(=O)C(F)(F)F (stereo not shown) [III-9] | 0 (mortality of less than 5% (almost ineffective)) | 3 (mortality of at least 40% and less than 70%) | 2 (mortality of at least 20% and less than 40%) | 0 (mortality of less than 5% (almost ineffective)) | 2 (mortality of at least 20% and less than 40%) | 0 (mortality of less than 5% (almost ineffective)) | 5 (mortality of 90% or above (nearly complete death)) | 0 (mortality of less than 5% (almost ineffective)) | 3 (mortality of at least 40% and less than 70%) | 3 (mortality of at least 40% and less than 70%) | 0 (mortality of less than 5% (almost ineffective)) | 0 (mortality of less than 5% (almost ineffective)) | 0 (mortality of less than 5% (almost ineffective)) | 1 (mortality of at least 5% and less than 20%) | 0 (mortality of less than 5% (almost ineffective)) | 3 (mortality of at least 40% and less than 70%) | 0 (mortality of less than 5% (almost ineffective)) | 5 (mortality of 90% or above (nearly complete death)) | 0 (mortality of less than 5% (almost ineffective)) | 1 (mortality of at least 5% and less than 20%) | herbicidal effect, D: large crabgrass (large crabgrass [18]): 0 (mortality of less than 5% (almost ineffective)); herbicidal effect, A: barnyardgrass (barnyardgrass [19]): 2 (mortality of at least 20% and less than 40%); herbicidal effect, E: giant foxtail (giant foxtail [20]): 2 (mortality of at least 20% and less than 40%); B: bulrush, herbicidal effect (evaluation scale 0-5) (bulrush [21]): 5 (mortality of 90% or above (nearly complete death)); A: barnyardgrass, herbicidal effect (evaluation scale 0-5) (barnyardgrass [22]): 4 (mortality of at least 70% and less than 90%); C: ducksalad, herbicidal effect (evaluation scale 0-5) (ducksalad [23]): 0 (mortality of less than 5% (almost ineffective)); B: bulrush, herbicidal effect (evaluation scale 0-5) (bulrush [24]): 5 (mortality of 90% or above (nearly complete death)); A: barnyardgrass, herbicidal effect (evaluation scale 0-5) (barnyardgrass [25]): 4 (mortality of at least 70% and less than 90%); C: ducksalad, herbicidal effect (evaluation scale 0-5) (ducksalad [26]): 4 (mortality of at least 70% and less than 90%) |
| CC1(C)CON(Cc2ccccc2NS(=O)(=O)C(F)(F)F)C(=O)O1 [III-10] | 0 (mortality of less than 5% (almost ineffective)) | 3 (mortality of at least 40% and less than 70%) | 5 (mortality of 90% or above (nearly complete death)) | 4 (mortality of at least 70% and less than 90%) | 4 (mortality of at least 70% and less than 90%) | 4 (mortality of at least 70% and less than 90%) | 5 (mortality of 90% or above (nearly complete death)) | 5 (mortality of 90% or above (nearly complete death)) | 1 (mortality of at least 5% and less than 20%) | 5 (mortality of 90% or above (nearly complete death)) | 4 (mortality of at least 70% and less than 90%) | 5 (mortality of 90% or above (nearly complete death)) | 1 (mortality of at least 5% and less than 20%) | 5 (mortality of 90% or above (nearly complete death)) | 2 (mortality of at least 20% and less than 40%) | 4 (mortality of at least 70% and less than 90%) | 4 (mortality of at least 70% and less than 90%) | 5 (mortality of 90% or above (nearly complete death)) | 5 (mortality of 90% or above (nearly complete death)) | 4 (mortality of at least 70% and less than 90%) | herbicidal effect, D: large crabgrass (large crabgrass [18]): 5 (mortality of 90% or above (nearly complete death)); herbicidal effect, A: barnyardgrass (barnyardgrass [19]): 5 (mortality of 90% or above (nearly complete death)); herbicidal effect, E: giant foxtail (giant foxtail [20]): 4 (mortality of at least 70% and less than 90%); B: bulrush, herbicidal effect (evaluation scale 0-5) (bulrush [21]): 5 (mortality of 90% or above (nearly complete death)); A: barnyardgrass, herbicidal effect (evaluation scale 0-5) (barnyardgrass [22]): 5 (mortality of 90% or above (nearly complete death)); C: ducksalad, herbicidal effect (evaluation scale 0-5) (ducksalad [23]): 5 (mortality of 90% or above (nearly complete death)); B: bulrush, herbicidal effect (evaluation scale 0-5) (bulrush [24]): 5 (mortality of 90% or above (nearly complete death)); A: barnyardgrass, herbicidal effect (evaluation scale 0-5) (barnyardgrass [25]): 5 (mortality of 90% or above (nearly complete death)); C: ducksalad, herbicidal effect (evaluation scale 0-5) (ducksalad [26]): 5 (mortality of 90% or above (nearly complete death)) |
